{"source": "paper PMC8706998", "about": "“Lipid Nanocarriers-Loaded Nanocomposite as a Suitable Platform to Release Antibacterial and Antioxidant Agents for Immediate Dental Implant Placement Restorative Treatment” (Pharmaceutics, 2021)", "key": {"[1]": {"test_system": "Staphylococcus aureus ATCC 25923 strain, growing as planktonic cells", "assay": "Kill curve assay", "assay_type": "cell-based", "conditions": "ca. 0.1 mg/mL CPX (highest amount in BioQ-CPX); data not shown", "procedure": "Kill curve assays were performed to test the antimicrobial efficacy of BioQ-CPX, BioQ, and the Blank CTS matrix against the indicator pathogen Staphylococcus aureus ATCC 25923 strain, growing as planktonic cells. Briefly, a single colony of S. aureus strain was picked up and pre-cultivated (ca. 16 h) at 37 °C with shacking (160 rpm) in tryptone soy broth medium (hereinafter named as TSB; Merck, Milan, Italy). The same medium was solidified by adding 15 g/L of bacteriological agar when needed. Bacterial cells were then inoculated [0.05% v/v corresponding to ca. 5 × 10^5 colony forming units (CFU) per mL of culture] in TSB medium amended with increasing concentrations (i.e., 1, 2.5, and 5 mg/mL) of the above-mentioned samples. The set up bacterial cultures were challenged for 24 h according to the same pre-culturing conditions. The actual number of viable S. aureus CFU/mL—who survived the challenge exerted by BioQ-CPX, BioQ, and Blank matrix—was evaluated through the spot plate count method and compared to unchallenged cultures. The data are reported as average values (n = 3) of the CFU/mL in the logarithmic (Log10) scale with standard deviation (SD)."}, "[2]": {"assay": "Ex vivo permeation/penetration experiments in Franz-type cells", "assay_type": "in vitro ADME, pig", "conditions": "from 30 mg BioQ-CPX", "procedure": "Tissue specimens were obtained from the vestibular area of the retromolar trigone derived from 6–8-month-old pigs supplied by the Municipal Slaughterhouse of Villabate (Palermo, Italy) since withdrawn from animals intended for human consumption. By a refrigerated transport box, the specimens were immediately transferred to the laboratory within 1 h from animal sacrifice and surgically treated to remove both adipose and connective tissues in excess. Afterward, they were dipped for 30 min in a 5% THR (w/v) isotonic solution and then stored at −80 °C for a minimum period of one week. Before the permeation/penetration experiments, tissue samples were accurately washed to remove the cryoprotectant, and, subsequently, thermal shocked to obtain the buccal mucosa. Briefly, tissue samples were dipped for 30 s in a pre-warmed (70 °C) isotonic solution, and then the mucosa was carefully peeled off from the connective tissue, obtaining the heat-separated epithelium along with the intact basal lamina. Finally, it was equilibrated in an isotonic solution for 3 h by replacing the medium every 15 min to remove all the biological matter, which could affect the analysis, before use.\nThe ex vivo permeation/penetration studies were carried out using vertical Franz-type diffusion cells. Briefly, appropriate sections of buccal mucosa were mounted between the donor and the acceptor chambers filled with 1 mL of citrate buffer pH 5.5 and 15 mL of citrate buffer pH 5.5 amended with acetic acid 0.1% (v/v), Acys 0.002% (w/v), and β-CD 3% (w/v). The whole system was equilibrated at 37 ± 0.5 °C for 30 min. Afterward, the medium was removed from the donor compartment, promptly replaced with 30 mg of BioQ-CPX, and soaked with 0.2 mL of citrate buffer pH 5.5. Every 30 min, aliquots (0.5 mL) were withdrawn from the acceptor chamber and immediately replaced with the same volume of fresh acceptor fluid to maintain the sink conditions. Experiments were carried out at 37 ± 0.5 °C in the dark and under constant stirring, being stopped at different time points ranging from 1 to 6 h. The amount of permeated QRC and CPX were quantified by UV–Vis analysis. Data are reported as means ± SE (n = 6).\nBriefly, the mucosa was dipped into 2 mL of methanol and warmed up to 60 °C. The extraction procedure was performed twice, and the collected extraction liquors were transferred into a 10 mL flask and brought to volume with fresh methanol. Thus, QRC and CPX amounts were determined by UV–Vis analysis. Results are reported as means ± SE."}, "[3]": {"assay": "CPX release study, dialysis tube method", "assay_type": "physicochemical", "conditions": "from BioQ-CPX, citrate buffer pH 5.5 + acetic acid, after 1.5 h", "procedure": "(§1) The system was submerged in 15 mL of the same medium; (b) Franz diffusion cells (Permeagear, flat flange joint, 9 mm orifice diameter, 15 mL acceptor volume, SES GmbH-Analysesysteme, Bechenheim, Germany) consisting in a donor chamber filled with 10 mg of powder and soaked with 0.5 mL of citrate buffer pH 5.5, and an acceptor chamber filled with 15 mL of the same medium plus glacial acetic acid 0.01% (v/v). A cellulose dialysis membrane (Medicell Membranes, London, UK: MWCO: 12–14,000 Da) previously soaked with the acceptor fluid, was inserted between the two compartments.\n(§2) QRC release studies were carried out using a modified transwell permeable support (0.45 µm) filled with 5 mg of the BioQ-CPX powder and soaked with 0.2 mL of citrate buffer pH 5.5. The entire system was dipped inside a beaker filled with 8 mL of 1-octanol as a suitable acceptor fluid. […] The experiments were carried out at 37 ± 0.5 °C under constant stirring and protected by light exposure while, immediately after sampling, opportune volumes of fresh acceptor fluid were added to maintain the sink conditions. Data are reported as means ± SE (n = 6). Drug release profiles were elaborated using OriginPro 8.5 software and fitted with semi-empirical model equations. Fittings were validated by using R^2 value where a p-value of less than 0.05 was considered statistically significant."}, "[4]": {"test_system": "S. aureus cells growing as a biofilm", "assay": "Biofilm inhibition, crystal violet staining", "assay_type": "cell-based, Staphylococcus aureus", "conditions": "5 mg BioQ-CPX in 200 μL culture, CPX at the same concentration as in BioQ-CPX; 24 h, 37 °C", "procedure": "Briefly, pre-cultivated S. aureus cells for 16 h at 37 °C were inoculated (1% v/v corresponding to ca. 1 × 10^7 CFU/mL) in TSB medium. The set-up culture was aliquoted (200 μL) in a 96-well microtiter plate. […] The microtiter plate was then incubated for 24 h at 37 °C under static mode, allowing for bacterial biofilm formation. After the incubation period, bacterial cultures have been disposed, while each well was washed 3 time with 200 μL of sterile physiological (NaCl 0.9% w/v) solution to remove loosely adherent cells. Then, S. aureus biofilms were stained by adding 200 μL of an aqueous crystal violet (0.1% w/v) solution at room temperature for 15 min. Subsequently, wells were washed 5 times with 200 μL of physiological solution to remove the excess of unbound crystal violet and left to dry for 20 min at 65 °C. Finally, crystal violet was solubilized by adding 200 μL of an acetic acid (30% v/v) solution, the absorbance (Abs) being read at 600 nm using a DU-730 Life Science spectrophotometer (Beckman Coulter, Brea, CA, USA). Unchallenged cultures were used as reference biofilms (positive control), while wells containing only the medium utilized in this study were used as a negative control. The percentage of biofilm inhibition was calculated as follows: Biofilm inhibition (%)=(Abs positive control−Abs challenge)/Abs positive control×100"}, "[5]": {"assay": "CPX release study, Franz diffusion cell with cellulose membrane", "assay_type": "physicochemical", "conditions": "CPX release from BioQ-CPX, data up to 9 h", "procedure": "as §1, §2"}}, "note": "Values joined by “and” are separate entries in the source; they are usually repeats but may differ in a detail not shown here. Identical values can stand only once."}
{"smiles": "O=C(O)c1cn(C2CC2)c2cc(N3CCNCC3)c(F)cc2c1=O", "note": "[CPX, Ciprofloxacin]", "values": [{"measurement": "effect on bacterial growth", "setting": "[1]", "value": "did prevent bacterial growth"}, {"measurement": "maximum amount accumulated into the mucosa", "setting": "[2]; after 5 h", "value": "about 5 % of drugs dose"}, {"measurement": "amount accumulated into the mucosa", "setting": "[2]; first hour from application", "value": "about 4 % of dose"}, {"measurement": "CPX released", "setting": "[3]", "value": 80, "unit": "%"}, {"measurement": "S. aureus biofilm formation inhibition", "setting": "[4]", "value": "ca. 55%"}, {"measurement": "Korsmeyer-Peppas n", "setting": "[5]", "value": "0.8280 ± 0.0125 and 0.8280"}, {"measurement": "Korsmeyer-Peppas with Tlag n", "setting": "[5]", "value": 0.8293}, {"measurement": "First-Order k", "setting": "[5]; time in hours", "value": 0.1359}, {"measurement": "Korsmeyer-Peppas k", "setting": "[5]; time in hours", "value": 0.1134}, {"measurement": "Korsmeyer-Peppas with Tlag k", "setting": "[5]; time in hours", "value": 0.1113}, {"measurement": "Korsmeyer-Peppas with Tlag: Tlag", "setting": "[5]; time in hours", "value": "−0.031"}, {"measurement": "Zero-Order k", "setting": "[5]; time in hours", "value": 0.079}]}
